Tests used:
Meniere's disease = details: existing drug (diuretic drug); cited from earlier work
[1] = system: patients suffering from acute low-tone sensorineural hearing loss; experiment: clinical test in patients with acute low-tone sensorineural hearing loss (Example 2); type: in vivo; details: for Hearing in the sound ear 500 Hz: before administration 10 dB; for Hearing in the sound ear 250 Hz: before administration 15 dB; for Hearing in the sound ear Average hearing level: before administration 17 dB; for Hearing in the sound ear 125 Hz: before administration 25 dB; for Hearing in the affected ear 500 Hz: before administration 35 dB; for Hearing in the affected ear 125 Hz: before administration 40 dB; for Hearing in the affected ear Average hearing level: before administration 42 dB; for Hearing in the affected ear 250 Hz: before administration 50 dB
Experimental: Pranlukast hydrate (trade name: Onon capsule) was administered to the patients suffering from acute low-tone sensorineural hearing loss concurrently with a feeling of fullness in the left ear at a daily dose of 450 mg (two capsules each containing 112. 5 mg given individually after breakfast and dinner) for two months to investigate into the efficacy against hearing impairment, the major complaint. In connection to the above test, it is to be noted that selection of patients was performed in accordance with a draft of the Criteria for Diagnosis proposed by Study Group for Acute Severe Hearing Loss of the Ministry of Health, Labor and Welfare of Japan (refer to Audiology Japan., 45, 161-166 (2002)).

[2] = system: patients afflicted with Meniere's disease; experiment: clinical pharmacological test in patients afflicted with Meniere's disease (Example 1); type: in vivo; details: 450 mg daily
Experimental: Pranlukast hydrate (trade name: onon capsule) was administered to 19 patients afflicted with Meniere's disease at a daily dose of 450 mg (two capsules each containing 112.5 mg individually after breakfast and after dinner) for the period of not less than three weeks (up to 24 weeks max.) to test and determine the efficacy. The overall efficacy (therapeutic) assessment was performed mainly on the basis of the results of nystagmus and hearing tests, while also taking into consideration the subjective symptoms (rotary vertigo, tinnitus, a feeling of fullness in ear, hearing rimpairment, etc.) and the extent or degree of hearing impairment (average hearing, method of quartering). In consequence of this, the efficacy was recognized and determined in 17(89.5%) out of 19 patients afflicted with Meniere's disease.

mice = experiment: acute toxicity, minimum lethal dose; type: in vivo; details: male and female, orally or subcutaneously
rats = experiment: acute toxicity, minimum lethal dose; type: in vivo; details: male and female, orally or subcutaneously

Compound: O[C@@H]1CO[C@H]2[C@@H]1OC[C@@H]2O [isosorbide]
- efficacy against hearing impairment, tinnitus and a feeling of fullness in the ear (Meniere's disease): hardly been found to exhibit the efficacy

Compound: O=C(Nc1cccc2c(=O)cc(-c3nnn[nH]3)oc12)c1ccc(OCCCCc2ccccc2)cc1 [pranlukast hydrate, 4-oxo-8-[4-(4-phenylbutoxy)benzoylamino]-2-(tetrazol-5-yl)-4H-1-benzopyran ½ hydrate]
- average hearing level recovered ([1]; 450 mg daily, after one month of administration, affected ear): 19 dB
- efficacy evaluation (healed/ameliorated/unchanged/worsened) ([1]; 450 mg daily, after two months of administration): healing
- effect on subjective symptoms and hearing ([1]; 450 mg daily, within one week of administration): tendency of amelioration
- Hearing in the sound ear 500 Hz ([1]; after one month): 15 dB
- Hearing in the sound ear 250 Hz ([1]; after one month): 15 dB
- Hearing in the sound ear Average hearing level ([1]; after one month): 18 dB
- Hearing in the sound ear 125 Hz ([1]; after one month): 25 dB
- Hearing in the affected ear 500 Hz ([1]; after one month): 15 dB
- Hearing in the affected ear 125 Hz ([1]; after one month): 30 dB
- Hearing in the affected ear Average hearing level ([1]; after one month): 23 dB
- Hearing in the affected ear 250 Hz ([1]; after one month): 25 dB
- Hearing in the sound ear 500 Hz ([1]; after two months): 10 dB
- Hearing in the sound ear 250 Hz ([1]; after two months): 15 dB
- Hearing in the sound ear Average hearing level ([1]; after two months): 17 dB
- Hearing in the sound ear 125 Hz ([1]; after two months): 25 dB
- Hearing in the affected ear 500 Hz ([1]; after two months): 10 dB
- Hearing in the affected ear 125 Hz ([1]; after two months): 25 dB
- Hearing in the affected ear Average hearing level ([1]; after two months): 18 dB
- Hearing in the affected ear 250 Hz ([1]; after two months): 20 dB
- overall efficacy, patients in whom efficacy was recognized ([2]; oral, not less than three weeks (up to 24 weeks), 17 out of 19 patients): 89.5%
- effective rate in patients suffering from vertigo (rotary vertigo or stagger) ([2]; 6 out of 6 patients): 100%
- efficacy in patients complaining of the subjective symptoms ([2]; 15 out of 19 patients): 78.9%
- efficacy in patients suffering from hearing impairment ([2]; 15 out of 19 patients): 78.9%
- minimum lethal dose (mice): not less than 2000 mg/kg
- minimum lethal dose (rats): not less than 2000 mg/kg

Reference: patent US20070249695A1, “Preventive and/or Therapeutic Agents for Meniere's Disease” (priority 2004, published 2007)
